{
  "source": "patent US20080167268A1",
  "about": "“Particulate beta-glucan compositions for regulating dendritic cells” (priority 2006, published 2008)",
  "system": "Lewis Lung Carcinoma cells (LLC) transfected with OVA and MUC1",
  "experiment": "Staurosporine-induced apoptosis of transfected LLCs (PI / annexin V-FITC flow cytometry)",
  "format": "cell-based",
  "conditions": "transfected LLCs treated with Staurosporine vs untreated; FIG. 2",
  "from_the_text": "Transfected LLCs were either left untreated (plot 22) or treated (plot 24) with Staurosporine, which induces apoptosis. Cells from both groups were stained with propidium iodide (PI) and annexin V-FITC and analyzed by flow cytometry.",
  "data": [
    {"smiles": "CN[C@@H]1C[C@H]2O[C@@](C)([C@@H]1OC)n1c3ccccc3c3c4c(c5c6ccccc6n2c5c31)C(=O)NC4", "note": "[Staurosporine]", "values": [
      {"measurement": "induction of apoptosis (annexin V-FITC positive cells)", "value": "able to induce apoptosis"}
    ]}
  ]
}
